In data set [1] the target is glucose-regulated protein GRP78 (Homo sapiens, UniProt P11021). The conditions noted are these: previously validated by research team; cited from earlier work.
The test system of data set [2] is GRP78 protein. The data set is described as follows: Western blot of GRP78 protein on the cell membrane of U87 cells. It counts as cell-based. As for the experimental part: After cells were subjected to various treatments, the culture medium was removed, and the cells were washed twice with pre-cooled PBS. The cells were then scraped off and collected into an EP tube. Membrane proteins were extracted using a cell membrane protein extraction kit, followed by centrifugation at 12,000 rpm at 4°C to obtain the supernatant, which was stored for later use. The total protein concentration was determined using the BCA assay, after which the sample was mixed with 5× loading buffer at a ratio of 4:1 and heated to denature the proteins. The samples were stored at -20°C for future use. Samples containing approximately 40 µg of protein were subjected to 15% polyacrylamide gel electrophoresis and then transferred onto polyvinylidene fluoride (PVDF) membranes. […]
After U87 cells were treated with free DOX at different concentrations for 48 hours, membrane proteins were extracted and detected using the method described above.
After U87 cells were treated with different concentrations of TMZ for 48 hours, membrane proteins were extracted and detected using the method described above.
After U87 cells were treated with 5 µg/mL TMZ for varying durations, membrane proteins were extracted and analyzed using the method described above.
In general terms: A western blot detects proteins with antibodies after separation by electrophoresis.

Data set [3] concerns GRP78 protein. The data set is described as follows: Western blot of GRP78 protein in tumors of orthotopic glioma mice. The conditions noted are these: TMZ 10 mg/mL by gavage, after 48 hours. It counts as in vivo, nude mice.
The test system of a further data set is in situ glioma. Kind of data set: Efficacy of TMZ combined with peptide-DOX complex in in situ glioma. The conditions noted are these: TMZ 10 mg/kg by gavage Days 3-21; pHA-AO1HX-VAP-DOX equivalent to 3 mg/kg DOX tail vein Days 5-23; n = 10.
Data set [4] in a line: Saturation solubility in PBS. It counts as physicochemical. The conditions noted are these: aqueous buffer, PBS pH 7.4, 37°C, calculated based on DOX.
Method: The mixture was incubated at 37°C for 24 hours, then filtered through a membrane of 0.22 µm. The filtrates were subsequently diluted 10-fold and 20-fold, respectively, and the concentration of DOX was measured.
The next data set relates to U87 orthotopic glioma. The data set is described as follows: In vivo pharmacodynamic study, survival of U87 orthotopic glioma mice. Also noted: species or system nude mice. The conditions noted are these: single dose of DOX 1 mg/kg, intravenous, every other day from day 5. As for the experimental part: Approximately 20 g nude mice were anesthetized and fixed onto a stereotaxic apparatus. Orthotopic glioma mouse model was established by injecting 5 µL of U87 cell suspension (5×10^5 cells) with microsyringe into the striatum of the mice (0.6 mm anteroposterior to the bregma, 1.8 mm lateral to the midline, and 3 mm deep). On day 5 after tumor implantation, the mice were randomly divided into four groups, with 10 mice per group.

A short description of data set [5]: Maximum tolerated dose study. Also noted: species or system Male Balb/c mice. The conditions noted are these: mouse, in vivo, iv; tail vein, 14 days monitoring; dose at which no mice died; expressed as DOX. On the procedure: The body weight changes of the mice were recorded daily (relative body weight change = daily body weight / initial body weight), with continuous monitoring for 14 days to observe whether any mice died.

A further data set relates to Tumor cells U87. The data set is described as follows: Intracellular DOX detection in U87 cells. Format: cell-based. The conditions noted are these: 4 hours, 37°C. On the procedure: Tumor cells U87 in the logarithmic growth phase and macrophages RAW264.7, both cultured as monolayers, were detached from the culture dishes by digestion with 0.25% trypsin. The single-cell suspensions were prepared in DMEM medium supplemented with 10% fetal bovine serum. Each well of a 6-well plate was seeded with 5 × 10^5 cells in a volume of 2 mL per well. The plates were then transferred to a CO2 incubator and cultured overnight at 37°C under conditions of 5% CO2 and saturated humidity. After overnight incubation, the culture medium was wholly aspirated from each well. DOX, pHA-AHX-VAP-DOX, and pHA-AOnHX-VAP-DOX (n = 1, 2, 3, 5) solutions were added to the wells, and the cells were incubated at 37°C for 4 hours. The supernatant was then discarded. Following cell collection by trypsinization, the cells were washed three times with PBS and counted. After the final wash, any remaining supernatant was wholly removed. To the cell pellet, acidified methanol (Vmethanol : Vmethanoic acid = 98:2) was added, and the cells were subjected to sonication. After centrifugation at 10,000 rpm for 10 minutes, the supernatant was collected and analyzed for DOX concentration.

Data set [6] can be described thus: In vivo distribution in nude mouse model of orthotopic glioma. Also noted: species or system nude mice. The conditions noted are these: DOX dose 5 mg/kg, tail vein, 30 minutes; compared to free DOX. On the procedure:
Approximately 22 g nude mice were anesthetized and fixed onto a stereotaxic apparatus. An orthotopic glioma mouse model was established by injecting 5 µL of U87 cell suspension (8×10^5 cells) with microsyringe into the striatum of the mice (0.6 mm anteroposterior to the bregma, 1.8 mm lateral to the midline, and 3 mm ventral to the surface). Ten days after tumor implantation, the mice were administered DOX (5 mg/kg) or pHA-AOnHX-VAP-DOX (n = 1, 2, 3, 5; DOX dose: 5 mg/kg) via tail vein injection. Thirty minutes later, the mice were anesthetized, perfused with PBS, and the major organs including the brain, heart, liver, spleen, lungs, and kidneys were collected. The tissues from each organ were blotted dry with filter paper and weighed. Then, according to the weight of each organ, a specific volume of isopropanol containing 0.075 M HCl and 10% water was added, followed by homogenization. After overnight incubation at 4°C, the samples were centrifuged, and the supernatants were collected for analysis. […] As depicted in Figure 30, the accumulation of DOX in the heart was reduced by pHA-AOnHX-VAP-DOX (n = 1, 2, 3, 5), while the drug concentration in the blood was increased.

Values after ≈ are worked out from the molar mass of the structure shown. Where no end group is shown, it is not given here. [ ]: non-standard residue; d: D form.

Sequence of glucose-regulated protein GRP78 (P11021 19-654): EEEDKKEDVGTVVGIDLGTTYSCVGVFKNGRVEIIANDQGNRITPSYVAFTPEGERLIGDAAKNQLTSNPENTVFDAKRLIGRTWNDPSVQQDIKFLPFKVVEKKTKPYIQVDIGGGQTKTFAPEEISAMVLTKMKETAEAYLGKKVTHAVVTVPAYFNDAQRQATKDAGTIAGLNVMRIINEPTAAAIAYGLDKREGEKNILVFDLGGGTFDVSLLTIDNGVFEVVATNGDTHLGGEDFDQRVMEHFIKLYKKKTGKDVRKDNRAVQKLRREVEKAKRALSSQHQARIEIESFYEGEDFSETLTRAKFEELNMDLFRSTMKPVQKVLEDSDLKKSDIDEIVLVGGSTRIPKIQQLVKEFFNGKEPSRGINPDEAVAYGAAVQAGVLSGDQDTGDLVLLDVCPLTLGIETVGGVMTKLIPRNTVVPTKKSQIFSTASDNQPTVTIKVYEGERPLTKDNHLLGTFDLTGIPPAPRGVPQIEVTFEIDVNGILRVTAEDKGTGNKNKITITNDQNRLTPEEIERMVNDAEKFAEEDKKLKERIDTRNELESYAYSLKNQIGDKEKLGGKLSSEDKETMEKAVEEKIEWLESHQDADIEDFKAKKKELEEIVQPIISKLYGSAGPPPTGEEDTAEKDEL
Method for in situ glioma: The in situ glioma model was established as above, with the day of modeling set as Day 0. On Days 3, 5, 7, 9, 11, 13, 15, 17, 19, and 21, mice were administered TMZ by gavage at a single dose of 10 mg/kg.

Regarding “^DVAP: D-type amino acid sequence ^DP^DA^DV^DR^DT^DN^DS, SEQ ID NO: 3 ([dP][dA][dV][dR][dT][dN][dS])”, the “binding affinity to glucose-regulated protein GRP78” value (“binding affinity” below) in data set [1] was “high binding affinity”.

Consider `Cn1nnc2c(C(N)=O)ncn2c1=O` [TMZ, temozolomide], for which the “time after which GRP78 protein on the cell membrane began to significantly upregulate” value in the data set on GRP78 protein [2] (5 µg/mL TMZ, varying durations up to 48 hours) worked out at 12 h. In addition, the “expression of GRP78 protein in tumor tissue relative to control group” value in the data set with GRP78 protein [3] is listed as 1.45 times. The median survival time in the data set with in situ glioma was 48 days.

`COc1cccc2c1C(=O)c1c(O)c3c(c(O)c1C2=O)C[C@@](O)(C(=O)CO)C[C@@H]3O[C@H]1C[C@H](N)[C@H](O)[C@H](C)O1` [DOX, doxorubicin]: the solubility (commonly the dissolved amount per volume that the medium holds) at 24 h in [4] is 220 ± 30 µg/mL (≈ 405 µM). For the same compound, in the data set on GRP78 protein [2] (different concentrations, 48 hours), the “expression of GRP78 protein on the cell membrane surface of U87 cells” value is recorded as “significantly upregulated”. The compound further registered a median survival time in the data set with U87 orthotopic glioma of 35.5 days. The MTD (in general, the largest dose that counted as tolerated) at 336 h in data set [5] was roughly 10 mg/kg. Also, in the data set on Tumor cells U87, the “uptake by U87 cells (intracellular DOX)” value is given as “higher cellular uptake”.

For the compound `COc1cccc2c1C(=O)c1c(O)c3c(c(O)c1C2=O)C[C@@](O)(C(CO)=NNC(=O)CCCCCN1C(=O)CC(SC[C@H](NC(=O)CCOCCOCCNC(=O)c2ccc(O)cc2)C(=O)N2CCC[C@@H]2C(=O)N[C@H](C)C(=O)N[C@@H](C(=O)N[C@H](CCCNC(=N)N)C(=O)N[C@@H](C(=O)N[C@H](CC(N)=O)C(=O)N[C@H](CO)C(=O)O)[C@H](C)O)C(C)C)C1=O)C[C@@H]3O[C@H]1C[C@H](N)[C@H](O)[C@H](C)O1` (stereo partly drawn) [pHA-AO2HX-VAP-DOX], the “brain accumulation of DOX” value in [6] is reported as “greatest increase”.

“^SVAP: D-type amino acid sequence ^DS^DN^DT^DR^DV^DA^DP, SEQ ID NO: 4 (SNTRVAP; all D-amino acids; VARIANT 1..7: note = D type amino acid)”: the “binding affinity” value in data set [1] is on record as “high binding affinity”.

In the case of “^LVAP: L-type amino acid sequence SNTRVAP, SEQ ID NO: 1”, in data set [1], the “binding affinity” value is recorded as “high binding affinity”.

The values are drawn from patent EP4806903A1, “WHOLE-PROCESS TARGETING POLYPEPTIDE, PHARMACEUTICAL COMPLEX THEREOF, DRUG DELIVERY SYSTEM AND USE THEREOF” (Fudan University, priority 2023, dated 2025).
